Measurements as given in article PMC8267945, “Plumbagin, a Natural Product with Potent Anticancer Activities, Binds to and Inhibits Dihydroorotase, a Key Enzyme in Pyrimidine Biosynthesis” (International Journal of Molecular Sciences, 2021).

What was measured:
StDHOase [1] = target: T1, StDHOase (Salmonella typhimurium, UniProt P06204); experiment: fluorescence quenching binding assay; parameters: species or system Salmonella enterica serovar Typhimurium LT2
T1 construct: made in house; host or cells: E. coli BL21(DE3)
T1 sequence (P06204 whole entry): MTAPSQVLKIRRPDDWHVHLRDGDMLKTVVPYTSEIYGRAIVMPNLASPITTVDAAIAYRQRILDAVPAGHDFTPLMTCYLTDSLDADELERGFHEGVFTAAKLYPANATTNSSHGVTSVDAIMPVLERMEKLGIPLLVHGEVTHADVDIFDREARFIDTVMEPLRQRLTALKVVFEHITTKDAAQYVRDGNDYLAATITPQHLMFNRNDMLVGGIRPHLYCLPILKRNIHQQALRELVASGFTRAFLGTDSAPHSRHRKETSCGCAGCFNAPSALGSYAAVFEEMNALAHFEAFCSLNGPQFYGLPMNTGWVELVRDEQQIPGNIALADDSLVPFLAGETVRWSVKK
Procedure: Figure 7 The data used to calculate the Kd values of various DHOases. (A) The fluorescence emission spectra of ScDHOase with PLU of different concentrations (0–200 μM; 0, 10, 20, 50, 75, 100, 125, 150, 175, and 200 μM). The decrease in intrinsic fluorescence of protein was measured at 324 nm upon excitation at 280 nm with a spectrofluorometer. […] (B) The fluorescence emission spectra of huDHOase with PLU of different concentrations (0–200 μM). (C) The fluorescence emission spectra of StDHOase with PLU of different concentrations. (D) The fluorescence emission spectra of ScDHOase–R18A with PLU of different concentrations. (E) The fluorescence emission spectra of ScDHOase–T106A with PLU of different concentrations. […] (F) An aliquot amount of PLU was added to the enzyme solution to determine the Kd. The Kd was obtained by the following equation: ΔF = ΔFmax − Kd(ΔF/[PLU]). Data points are an average of 2–3 determinations within a 10% error.
The decrease in the intrinsic fluorescence of DHOase was measured with a spectrofluorometer (Hitachi F-2700; Hitachi High-Technologies, Japan). The Kd was obtained using the following equation: ΔF = ΔFmax − Kd(ΔF/[PLU]).
The Kd value of the purified DHOase was determined using the fluorescence quenching method as previously described for DHOase, DHPase, and DnaB helicase. Briefly, an aliquot of the compound was added into the solution containing DHOase (1 μM) and 50 mM HEPES at pH 7.0. The decrease in the intrinsic fluorescence of DHOase was measured at 324 nm upon excitation at 280 nm and 25 °C with a spectrofluorometer (Hitachi F-2700; Hitachi High-Technologies, Japan). The Kd was obtained using the following equation: ΔF = ΔFmax − Kd(ΔF/[PLU]).

tumor growth = conditions: cited from earlier work
StDHOase [2] = target: T1, StDHOase; experiment: rapid spectrophotometric DHOase enzyme assay (hydrolysis of DHO); format: biochemical, Salmonella enterica serovar Typhimurium LT2; conditions: PLU 200 μM
Procedure: A rapid spectrophotometric assay was used to determine the activity of DHOase. Briefly, the hydrolysis of DHO was measured at 25 °C as the decrease in absorbance at 230 nm. The purified DHOase was added to a 2 mL solution containing 0.5 mM DHO and 100 mM Tris–HCl at pH 8.0 to start the reaction. The extinction coefficient of DHO was 0.92 mM^−1·cm^−1 at 230 nm. The hydrolysis of DHO was monitored using a UV/Vis spectrophotometer (Hitachi U 3300; Hitachi High-Technologies, Tokyo, Japan). A unit of activity was defined as the amount of enzyme catalyzing the hydrolysis of 1 μmol DHO/min, and the specific activity was expressed in terms of units of activity per mg of enzyme. The kinetic parameters Km and Vmax were determined from a nonlinear plot by fitting the hydrolyzing rate from individual experiments to the Michaelis–Menten equation (Enzyme Kinetics module of Sigma-Plot; Systat Software, Chicago, IL, USA).

Klebsiella pneumoniae = experiment: bacterial growth inhibition; format: cell-based; conditions: 100 μM PLU added at 0.5 OD600, 37 °C
Procedure: (§1) Figure 8 Anticancer and antibacterial activities of PLU. (A) The trypan blue assay—4T1 cells incubated with PLU (10 μM). After 24 h, the anticancer potentiality was estimated. (B) The wound-healing assay—4T1 cells were seeded in 24-well plates. Cells were incubated with PLU (10 μM) for 24 h to allow migration. (C) Hoechst staining assay—an amount of 10 μM PLU-induced apoptosis with DNA fragmentation was observed. […] (E) Effects of PLU on cell survival, migration and proliferation, and nuclear condensation—a concentration of 10 μM PLU was effective for anti-4T1 cancer cells. (F) PLU inhibited bacterial growth—K. pneumoniae and S. enterica serovar Typhimurium LT2 cells were grown to 0.5 OD600 at 37 °C, and then PLU was added into the medium. […] PLU may inhibit the pyrimidine biosynthesis, resulting in its antibacterial activities.
(§2) Similar to cancer cells, bacterial cells are rapidly reproducible, and their growth might be suppressed by PLU. To test whether PLU could inhibit bacterial growth, we grew Klebsiella pneumoniae and S. enterica serovar Typhimurium LT2 cells to 0.5 OD600 at 37 °C, and then added PLU into the medium. […] Thus, PLU was also effective for antipathogen chemotherapies. PLU may inhibit pyrimidine biosynthesis, resulting in antibacterial activities.

[3] = tested on: S. enterica serovar Typhimurium LT2; experiment: bacterial growth inhibition; format: cell-based; conditions: 100 μM PLU added at 0.5 OD600, 37 °C
Procedure: as §1, §2

4T1 cells = experiment: chromatin condensation assay (Hoechst staining); format: cell-based, mouse
Procedure: The apoptosis in 4T1 cells was assayed with Hoechst 33342 staining. The 4T1 cells were seeded in 6-well plates at a density of 5 × 10^5 cells per well in a volume of […] of culture medium. Cells were allowed to adhere for 16 h. After different treatments, cells were incubated for an additional 24 h, washed with PBS, stained with the Hoechst dye (1 μg·mL^−1) in the dark at RT for 10 min, and imaged using an inverted fluorescence microscope (Axiovert 200 M; Zeiss Axioplam, Oberkochen, Germany) at excitation and emission wavelengths (λem) of 360 and 460 nm, respectively. The apoptotic index was calculated as follows: apoptotic index = apoptotic cell number/(apoptotic cell number + nonapoptotic cell number).

**Q.** For `CC1=CC(=O)c2c(O)cccc2C1=O` [PLU, plumbagin], which Kd (StDHOase [1]) is on record?
**A.** 80.3 ± 2.5 µM

**Q.** What about the “quenching of StDHOase” value (StDHOase [1]; PLU 0–200 μM) of the same compound?
**A.** 85.9%

**Q.** And the “λem shift of StDHOase” value (StDHOase [1]; PLU 0–200 μM)?
**A.** 11.0 nm

**Q.** What about the “λmax of StDHOase emission” value (StDHOase [1]; PLU 0–200 μM) of the same compound?
**A.** from 330.5 to 319.5

**Q.** What about the “tumor growth in PLU-treated mice” value (tumor growth; animal models) of the same compound?
**A.** significant reduction in tumor growth

**Q.** And the “side effects in PLU-treated mice” value (tumor growth; mouse, in vivo)?
**A.** no side effects

**Q.** And the “decrease of the activity of StDHOase” value (StDHOase [2])?
**A.** 71%

**Q.** What about the “growth of K. pneumoniae” value (Klebsiella pneumoniae) of the same compound?
**A.** significantly inhibited the growth

**Q.** What about the “growth of S. enterica serovar Typhimurium LT2” value [3] of the same compound?
**A.** significantly inhibited the growth

**Q.** And the “apoptosis with DNA fragmentation” value (4T1 cells; 10 μM PLU)?
**A.** 100%

**Q.** And the Apoptotic rate (4T1 cells; PLU 2 μM)?
**A.** 8%
